# Data published in patent publication US20170166561A1, “QUINUCLIDINE COMPOUNDS FOR MODULATING ALPHA7-NICOTINIC ACETYLCHOLINE RECEPTOR ACTIVITY” (Alpharmagen, LLC, priority 2014, published 2017).
# Structures can show the parent of a compound that is named as a salt. Where two headings read alike, the source gives them in different places.
# Assay: Human plasma stability (Protocols 1 and 2)
# Assay type: in vitro ADME
# Conditions: human
# Procedure: Example B6: Human Plasma Stability
# Studies were carried out in human plasma. All plasma was obtained from Bioreclamation and collected on sodium heparin. Plasma was adjusted to pH 7.4. A DMSO stock was first prepared for the test compound. An aliquot of the DMSO solution was dosed into 1 mL of plasma, which had been pre-warmed to 37° C., at a final test compound concentration of 1 μM. The vials were kept in a benchtop Thermomixer® for the duration of the experiment. Aliquots (100 μL) were taken at each time point (0, 15, 30, 60, and 120 minutes) and added to 96-well plates which had been pre-filled with 300 μL of acetonitrile. Samples were stored at 4° C. until the end of the experiment. After the final time point was sampled, the plate was mixed and then centrifuged at 3,000 rpm for 10 minutes. Aliquots of the supernatant were removed, diluted 1:1 into distilled water, and analyzed by LC-MS/MS. The peak area response ratio to internal standard (PARR) of the compound at 15, 30, 60 and 120 minutes was compared to the PARR at time 0 to determine the percent of test compound remaining at each time point. Half-lives were calculated using GraphPad software, fitting to a single-phase exponential decay equation.
# Studies were carried out in plasma. Plasma was prepared under approval of IRB and IACUC on sodium heparin. The pH of plasma was monitored and used within the range of pH 7.4 to pH 8.0. DMSO stocks were prepared for the test compounds. Aliquots of the DMSO solutions were diluted to 0.05 mM by 0.05 mM Sodium phosphate buffer with 0.5% BSA. Then 10 μL of 0.05 mM solutions were dosed into 90 μL of plasma in duplicates (n=2), which had been pre-warmed to 37° C., at a final test compound concentration of 5 μM. The plates were kept in a 37° C. water bath for the duration of the experiment. At each time point (0, 5, 15, 30, 45, 60, and 120 minutes), 400 μL of acetonitrile was added into corresponding wells. After the final time point was sampled, the plates were shaken at the vibrator (IKA, MTS 2/4) for 10 min (600 rpm/min) and then centrifuged at 5594 g for 15 min (Thermo Multifuge×3R). Aliquots of the supernatant were removed, diluted 1:1 into distilled water, and analyzed by LC-MS/MS. The peak area response ratio to internal standard (PARR) of the compounds at 5, 15, 30, 45, 60, and 120 minutes was compared to the PARR at time 0 to determine the percent of test compound remaining at each time point. Half-lives were calculated using Excel software, fitting to a single-phase exponential decay equation.
# [1] = Protocol 2, plasma pH 7.4 to 8.0, 5 μM, 37° C., read-out: T1/2
compound,measurement,setting,value
"Cc1cc(Cl)c2c(C(=O)OCC34CCN(CC3)CC4)c[nH]c2c1.Cl [Compound 65, quinuclidin-4-ylmethyl 4-chloro-6-methyl-1H-indole-3-carboxylate hydrochloride]",half-life at 5 μM,[1],5.56 h
"O=C(OCC12CCN(CC1)CC2)c1c[nH]c2ccc(F)c(Br)c12 [Compound 67, quinuclidin-4-ylmethyl 4-bromo-5-fluoro-1H-indole-3-carboxylate]",half-life at 5 μM,"plasma, pH 7.4",96.9 h
"Cc1ccc2[nH]cc(C(=O)OCC34CCN(CC3)CC4)c2c1Br [Compound 68, quinuclidin-4-ylmethyl 4-bromo-5-methyl-1H-indole-3-carboxylate]",T1/2,"plasma, pH 7.4",∞
"Cl.O=C(OCC12CCN(CC1)CC2)c1c[nH]c2cc(Cl)cc(Cl)c12 [Compound 71, quinuclidin-4-ylmethyl 4,6-dichloro-1H-indole-3-carboxylate hydrochloride]",half-life at 5 μM,[1],4.71 h
"Cc1cc2[nH]cc(C(=O)OCC34CCN(CC3)CC4)c2cc1F [Compound 72, Quinuclidin-4-ylmethyl 5-fluoro-6-methyl-1H-indole-3-carboxylate hydrochloride]",half-life at 5 μM,[1],3.8 h
"Cc1cc2[nH]cc(C(=O)OCC34CCN(CC3)CC4)c2cc1C.Cl [Compound 73, Quinuclidin-4-ylmethyl 5,6-dimethyl-1H-indole-3-carboxylate hydrochloride]",half-life at 5 μM,[1],1.57 h
"COc1cc(Cl)cc2[nH]cc(C(=O)OCC34CCN(CC3)CC4)c12.Cl [Compound 74, quinuclidin-4-ylmethyl 6-chloro-4-methoxy-1H-indole-3-carboxylate hydrochloride]",half-life at 5 μM,[1],2.94 h
"COc1c(C)ccc2[nH]cc(C(=O)OCC34CCN(CC3)CC4)c12 [Compound 75, quinuclidin-4-ylmethyl 4-methoxy-5-methyl-1H-indole-3-carboxylate]",T1/2,"plasma, pH 7.4",∞
"COc1cc2c(C(=O)OCC34CCN(CC3)CC4)c[nH]c2cc1C#N [Compound 76, quinuclidin-4-ylmethyl 6-cyano-5-methoxy-1H-indole-3-carboxylate]",half-life at 5 μM,"plasma, pH 7.4",4.88 h
"COc1cc(C#N)cc2[nH]cc(C(=O)OCC34CCN(CC3)CC4)c12 [Compound 77, quinuclidin-4-ylmethyl 6-cyano-4-methoxy-1H-indole-3-carboxylate]",half-life at 5 μM,"plasma, pH 7.4",3.87 h
"O=C(OCC12CCN(CC1)CC2)c1c[nH]c2ccc3c(c12)OCCO3 [Compound 81, quinuclidin-4-ylmethyl 2,3-dihydro-7H-[1,4]dioxino[2,3-e]indole-9-carboxylate]",half-life at 5 μM,"plasma, pH 7.4",4.5 h
"Cc1cc2c(C(=O)OCC34CCN(CC3)CC4)c[nH]c2cc1C#N [Compound 84, quinuclidin-4-ylmethyl 6-cyano-5-methyl-1H-indole-3-carboxylate]",half-life at 5 μM,[1],3.49 h
"COc1cc(C)cc2[nH]cc(C(=O)OCC34CCN(CC3)CC4)c12 [Compound 85, quinuclidin-4-ylmethyl 4 methoxy-6-methyl-1H-indole-3-carboxylate]",half-life at 5 μM,"plasma, pH 7.4",1.16 h
"COc1cc2c(C(=O)OCC34CCN(CC3)CC4)c[nH]c2cc1O [Compound 86, quinuclidin-4-ylmethyl 6-hydroxy-5-methoxy-1H-indole-3-carboxylate]",half-life at 5 μM,"plasma, pH 7.4",0.954 h
"COc1c(OCC(F)(F)F)ccc2[nH]cc(C(=O)OCC34CCN(CC3)CC4)c12 [Compound 88, quinuclidin-4-ylmethyl 4-methoxy-5-(2,2,2-trifluoroethoxy)-1H-indole-3-carboxylate]",T1/2,"plasma, pH 7.4",∞
"Cc1cc(OC(=O)C(C)(C)C)cc2[nH]cc(C(=O)OCC34CCN(CC3)CC4)c12 [Compound 89, quinuclidin-4-ylmethyl 4-methyl-6-(pivaloyloxy)-1H-indole-3-carboxylate]",half-life at 5 μM,"plasma, pH 7.4",5.16 h
"Cl.O=C(OCC12CCN(CC1)CC2)c1c[nH]c2cc(C(F)(F)F)ccc12 [Compound 90, quinuclidin-4-ylmethyl 6-(trifluoromethyl)-1H-indole-3-carboxylate]",half-life at 5 μM,[1],3.05 h
"COCCOc1ccc2[nH]cc(C(=O)OCC34CCN(CC3)CC4)c2c1C [Compound 91, quinuclidin-4-ylmethyl 5-(2-methoxyethoxy)-4-methyl-1H-indole-3-carboxylate]",half-life at 5 μM,"plasma, pH 7.4",8.32 h
"COCCCOc1ccc2[nH]cc(C(=O)OCC34CCN(CC3)CC4)c2c1C [Compound 92, quinuclidin-4-ylmethyl 5-(3-methoxypropoxy)-4-methyl-1H-indole-3-carboxylate]",half-life at 5 μM,"plasma, pH 7.4",3.13 h
"CC(=O)Nc1cc(C)c2c(C(=O)OCC34CCN(CC3)CC4)c[nH]c2c1 [Compound 93, quinuclidin-4-ylmethyl 6-acetamido-4-methyl-1H-indole-3-carboxylate]",half-life at 5 μM,"plasma, pH 7.4",10.7 h
"Cc1c(OCC(F)(F)F)ccc2[nH]cc(C(=O)OCC34CCN(CC3)CC4)c12 [Compound 94, quinuclidin-4-ylmethyl 4-methyl-5-(2,2,2-trifluoroethoxy)-1H-indole-3-carboxylate]",half-life at 5 μM,"plasma, pH 7.4",5.74 h
"Cc1c(OCCO)ccc2[nH]cc(C(=O)OCC34CCN(CC3)CC4)c12 [Compound 95, quinuclidin-4-ylmethyl 5-(2-hydroxyethoxy)-4-methyl-1H-indole-3-carboxylate, 2,2,2-trifluoroacetate salt]",half-life at 5 μM,"plasma, pH 7.4",6.61 h
"CNCCCOc1ccc2[nH]cc(C(=O)OCC34CCN(CC3)CC4)c2c1C [Compound 96, quinuclidin-4-ylmethyl 4-methyl-5-(3-(methylamino)propoxy)-1H-indole-3-carboxylate dihydrochloride]",half-life at 5 μM,"plasma, pH 7.4",0.114 h
